In patent US7815905B2, “Methods of increasing insulin sensitivity or decreasing insulin secretion by administering corticotropin releasing factor receptor-2 inhibitors” (Research Development Foundation, priority 2006, dated 2010):
Entries after “also recorded” stand apart in the source; their conditions may differ. Ends that are not written are not given here.

Experiments:
Ucn 2 null mice [1] = assay: Glucose tolerance test (GTT) in Ucn 2 null mice; format: in vivo, mouse; settings: fasted male Ucn 2 null mice; 0.1 μg/kg IP 20 min prior to glucose 2 g/kg
Procedure: (§1) FIG. 1a-f: Metabolic phenotype of Ucn 2 null mice. […] The ability of the Ucn 2 null mice and wild type littermates to handle a glucose load was assessed using a standard glucose tolerance test (see example 1). Fasted male mice were injected intraperitoneally (IP) with glucose (2 g/kg body weight) and blood glucose levels were measured before and at 15, 30, 60, 90 and 120 min following glucose injection. […] Fasted male Ucn 2 null mice were injected IP with saline or with 0.1 μg/kg body weight Ucn 2, 20 min prior to glucose injection (2 g/kg body weight) and blood glucose levels were measured before and at 15, 30, 60 and 90 min following glucose injection. […] Fasted male wild type mice were injected IP with saline or with astressin2B (30 μg/kg body weight), 20 min prior to glucose injection (2 g/kg body weight), and blood glucose levels were measured before and at 15, 30, 60 and 90 min following glucose injection. (d) The enhanced glucose tolerance in the Ucn 2 null mice is not due to increased insulin secretion. Fasted male mice were injected with glucose (3 g/kg body weight, IP) and blood samples were collected at 2, 5, 15 and 30 min following glucose injection and insulin was measured by radioimmunoassay. […] Fasted male mice were injected with insulin (0.75 U/kg body weight, IP) and blood glucose levels were measured before and at 15, 30, 60 and 90 min following insulin injection. […]

Ucn 2 null mice [2] = assay: Insulin tolerance test (ITT) in Ucn 2 null mice; format: in vivo, mouse; settings: fasted male Ucn 2 null mice; 0.1 μg/kg IP 20 min prior to insulin 0.75 U/kg
Procedure: as §1

[3] = system: insulin signaling in C2C12 myotubes; assay: Phosphorylation studies of insulin signaling in C2C12 myotubes; format: cell-based
Procedure: FIG. 3a-l: Urocortin 2 effects on muscle glucose uptake are mediated by inhibition of insulin signaling. (a-f). Ucn 2 inhibits the insulin-induced Akt and ERK1/2 phosphorylation but not the insulin receptor phosphorylation. Differentiated C2C12 myotubes were pre-incubated with or without Ucn 2 peptide (0.1, 1 or 10 nM) for 1 hour prior to insulin treatment (10 nM, 5 min). Cell lystates were resolved using 4-12% gradient polyacrylamide gels. Gels were electrophorectically transferred to membranes and probed with antibodies specific for the phospho proteins pAkt (Ser 473), pERK1/2 or pIR (Tyr1146). Stimulation of Akt, ERK or insulin receptor (IR) activation was calculated by fold activation of the phosphorylated form normalized to total and compared with the untreated controls (a, d and f, graphs). […] (g-j) Ucn 2 treatment increases the phosphorylation of serine residue 307 and not the tyrosin phosphorylation of IRS-1. Myotube cells, treated with or without PKA inhibitor (H-89), were incubated with insulin and different concentrations of Ucn 2. IRS-1 immunoprecipitated proteins were electrophoresed as before and the immunoblots were probed for phosphorylated tyrosin (g), phosphorylated serine 307 IRS-1 (i) and total IRS-1 (g, i). […] (k) The effect of Ucn 2 on [^3H]2-deoxy-D-glucose uptake in differentiated C2C12 myotubes. Cells were incubated for 2 hours in low glucose, serum free medium and treated with Ucn 2 (0.1, 1 or 10 nM) or without (control) for 30 min prior to insulin administration (10 nM). Glucose uptake was measured 5 min following exposure to [^3H]2-deoxy-D-glucose. Non-specific uptake was measured by incubating muscle tissue with cytochalasin B, which binds to the glucose uptake transporter (GLUT) and inhibits glucose transport into the cell. Specific uptake was calculated by subtracting non specific from total glucose. (l) Schematic representation of the putative cellular mechanisms mediating the effect of Ucn 2 and CRFR2 on the insulin signaling and glucose uptake in skeletal muscle cells. * indicates p<0.05 vs. no treatment. # indicates p<0.05 vs. insulin treatment (b, d, f) or p<0.05 vs. insulin treatment and Ucn 2 (i).
Differentiated C2C12 myotubes were pre-incubated with or without Ucn 2 peptide (0.1, 1 or 10 nM) for 1 hour prior to insulin treatment (10 nM, 5 min). Cells were harvested immediately in 100 μl of sample treatment buffer [STB, 50 mM Tris (pH 6.8), 100 mM dithiothreitol, 2% (wt/vol) sodium dodecyl sulfate, 0.1% (wt/vol) bromphenol blue, and 10% (wt/vol) glycerol]. The samples were boiled for 5 min, proteins were electrophoresed on 4-12% sodium dodecyl sulfate-polyacrylamide gradient gel (Invitrogen Life Technologies), subsequently transferred onto nitrocellulose membranes, and probed with antibodies specific for phosphorylated Akt (Ser 473, Cell Signaling Technology, Inc., Beverly, Mass.), phosphorylated ERK1/2-p42, 44 (Santa Cruz Biotechnology, Inc., Santa Cruz, Calif.), phosphorylated insulin receptor (Tyr 1146, Cell Signaling Technology, Inc.), or phosphorylated IRS1 (Ser 307, Upstate Cell Signaling Solutions, Lake placid, NY). The membranes were washed with phosphate buffer saline containing 0.05% (vol/vol) Tween 20 and incubated with horseradish peroxidase-conjugated anti mouse or rabbit IgG raised in sheep (Amersham Biotech Pharmacia). Immunoreactive proteins were visualized using Super Signal West Pico Chemiluminescent substrate (Pierce, Rockford, Ill.). The relative protein levels were determined using densitometry (Image quant 1.2) by probing the membranes with antibodies directed against total proteins.

C2C12 myotubes = assay: [3H]2-deoxy-D-glucose uptake in C2C12 myotubes; format: cell-based; settings: 0.1, 1 or 10 nM for 30 min prior to insulin 10 nM
Procedure: FIG. 3a-l: Urocortin 2 effects on muscle glucose uptake are mediated by inhibition of insulin signaling. (a-f). Ucn 2 inhibits the insulin-induced Akt and ERK1/2 phosphorylation but not the insulin receptor phosphorylation. Differentiated C2C12 myotubes were pre-incubated with or without Ucn 2 peptide (0.1, 1 or 10 nM) for 1 hour prior to insulin treatment (10 nM, 5 min). Cell lystates were resolved using 4-12% gradient polyacrylamide gels. Gels were electrophorectically transferred to membranes and probed with antibodies specific for the phospho proteins pAkt (Ser 473), pERK1/2 or pIR (Tyr1146). Stimulation of Akt, ERK or insulin receptor (IR) activation was calculated by fold activation of the phosphorylated form normalized to total and compared with the untreated controls (a, d and f, graphs). […] (g-j) Ucn 2 treatment increases the phosphorylation of serine residue 307 and not the tyrosin phosphorylation of IRS-1. Myotube cells, treated with or without PKA inhibitor (H-89), were incubated with insulin and different concentrations of Ucn 2. […] Glucose uptake was measured 5 min following exposure to [^3H]2-deoxy-D-glucose. Non-specific uptake was measured by incubating muscle tissue with cytochalasin B, which binds to the glucose uptake transporter (GLUT) and inhibits glucose transport into the cell. Specific uptake was calculated by subtracting non specific from total glucose. […]

[4] = 0.1, 1 or 10 nM for 1 hour prior to insulin 10 nM, 5 min
[5] = IRS-1 immunoprecipitates, insulin and Ucn 2

## Ucn 2: Urocortin 2, member of the CRF family, CRFR2 agonist; synthetic peptide (IVLSLDVPIGLLQILLEQARARAAREQATTNARILARVGHC; ends and bridges not checked; UniProt Q96RP3 72-112, looked up)
Ucn 2 null mice [1]
  blood glucose in glucose tolerance test: restores blood glucose to wild type levels
Ucn 2 null mice [2]
  blood glucose in insulin tolerance test: restored blood glucose levels to those of wild type mice; also recorded: restores blood glucose to wild type levels
[3]; [4]
  insulin-induced ERK1/2 phosphorylation: reduces; also recorded: inhibited; also recorded: dose dependently inhibits
  insulin-induced phosphorylation of Akt (Ser 473): reduces; also recorded: inhibits the insulin-induced phosphorylation of Akt in a dose dependent fashion; also recorded: dose dependently inhibits
  insulin-induced phosphorylation of the insulin receptor (Tyr1146): no significant differences
[3]; [5]
  phosphorylation of IRS-1 on serine residue 307: greatly increases; also recorded: strongly increases
  tyrosine phosphorylation of IRS-1 in response to insulin: remains unchanged
C2C12 myotubes
  insulin induced glucose uptake: reduces; also recorded: dose dependently inhibited
